Measured values published in ChEMBL document CHEMBL1201862, “PubChem BioAssay data set” (2004).
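Five compound concentrations were applied to cells in 96-well plates for 48 hours; endpoints were derived by simple linear interpolation of the resulting dose-response curve. Here, GI50 denotes the concentration required for 50% inhibition of growth.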 Active and inactive are the calls of the source. Cut-off read from the data, not from the text of the source: active = GI50 up to about 1.1 µM and inactive = higher. Where a SMILES comes first, the peptide text is derived from it. [ ]: non-standard residue; d: D form. Phe(4-NO2) = N[CH](Cc1ccc([N+](=O)[O-])cc1)C(=O)O

Legend:
Assay in all cases: inhibition of tumour cell growth, NCI panel, 48 h
[1] = test system: K562
[2] = test system: U-251
[3] = test system: NCI-H23
[4] = test system: SK-OV-3
[5] = test system: EKVX
[6] = test system: HOP-62
[7] = test system: NCI-H226
[8] = test system: Hs-578T
[9] = test system: IGROV-1
[10] = test system: MCF7
[11] = test system: TK-10
[12] = test system: M14
[13] = test system: SF-539
[14] = test system: OVCAR-8
[15] = test system: HCT-15
[16] = test system: OVCAR-5
[17] = test system: OVCAR-4
[18] = test system: MOLT-4
[19] = test system: A498
[20] = test system: CCRF-CEM

Structure (SMILES)	GI50 [1]	GI50 [2]	GI50 [3]	GI50 [4]	GI50 [5]	GI50 [6]	GI50 [7]	GI50 [8]	GI50 [9]	GI50 [10]	GI50 [11]	GI50 [12]	GI50 [13]	GI50 [14]	GI50 [15] [µM]	GI50 [16]	GI50 [17]	GI50 [18]	GI50 [19]	GI50 [20]
O=C1C=CC(=O)c2ncccc21	2.32 µM (inactive)	3.18 µM (inactive)	10.3 µM (inactive)	12.2 µM (inactive)	3.37 µM (inactive)	5.11 µM (inactive)	12.1 µM (inactive)	10.2 µM (inactive)	5.07 µM (inactive)	4.42 µM (inactive)	6.28 µM (inactive)	3.68 µM (inactive)	7.98 µM (inactive)	9.04 µM (inactive)	2.08	17.5 µM (inactive)	5.16 µM (inactive)	2.36 µM (inactive)	13.8 µM (inactive)	0.787 µM (active)
CC(NC(=O)C(Cc1ccc([N+](=O)[O-])cc1)NC(=O)C(N)CCCCN)C(=O)NC(Cc1ccc([N+](=O)[O-])cc1)C(N)=O (stereo not given) (H-K[Phe(4-NO2)]A[Phe(4-NO2)]-NH2; configuration not given here)	> 20.5 µM (inactive)	> 42.2 µM (inactive)	85.3 µM (inactive)	> 100 µM (inactive)	> 71.4 µM (inactive)	11.7 µM (inactive)	98.9 µM (inactive)	> 68.7 µM (inactive)	26.2 µM (inactive)	> 40.7 µM (inactive)	> 59.4 µM (inactive)	> 50.5 µM (inactive)	58.1 µM (inactive)	23.9 µM (inactive)	56.6	> 100 µM (inactive)	> 38.6 µM (inactive)	> 31.6 µM (inactive)	85.5 µM (inactive)	> 100 µM (inactive)
